In this experiment the test system is TNBS-induced colitis. The experiment can be described thus: TNBS-induced colitis in Gpbar1+/+ and Gpbar1-/- mice. Type of experiment: in vivo. Particulars: for development and severity of colitis assessed by body weight lost, CDAI and histological sections: 30 mg/kg daily by o.s., FIG. 2A-C. As for the experimental part:
Because macrophages are one of the most abundant leucocytes in the intestinal mucosa and are implicated in the pathogenesis of IBDs (Inflammatory bowel diseases), the effect of PBT110B was investigated in a TNBS-induced colitis (2,4,6-trinitrobenzene sulfonic acid-induced) in Gpbar1+/+ and Gpbar1-/- mice. Gpbar1+/+ and Gpbar1-/- mice were treated with TNBS alone or in combination PBT110B (30 mg/kg). […] In addition, the expression of pro- and anti-inflammatory cytokines in the colon of these animals (FIG. 3) was analyzed. Gpbar1^+/+ and Gpbar1^-/- mice were treated with TNBS alone or in combination PBT110B (30 mg/kg). Values are normalized relative to Gapdh mRNA and are expressed as mean±SEM (n=5); ^#p<0.05. GPBAR1 null mice on C57BL/6NCrl background, and C57BL/6NCrl congenic littermates were originally donated by Dr. […] (Schering-Plough Research Institute, Kenilworth). The colonies were maintained in the animal facility of University of Perugia. Mice were housed under controlled temperatures (22° C.) and photoperiods (12:12-hour light/dark cycle), allowed unrestricted access to standard mouse chow and tap water and allowed to acclimate to these conditions for at least 5 days before inclusion in an experiment. The study was conducted in agreement with the Italian law and the protocol was approved by ethical committee of University of Perugia and by a National Committee of Italian Ministry of Health permit n° 1126/2016-PR. The health and body conditions of the animals were monitored daily by the veterinarian in the animal facility. The study protocol caused minor suffering, however, animals that lost more than 25% of the initial body weight were euthanized. Colitis was induced in mice by TNBS. Mice were fasted for 12 h (day -1) and the day after (day 0) mice were anesthetized, and a 3.5 F catheter inserted into the colon such that the tip was 3 cm proximal to the anus. To induce colitis, 1 mg of 2,4,6-trinitrobenzenesulfonic acid TNBS (Sigma Chemical Co, St Louis, Mo.) in 50% ethanol was administered via catheter into the lumen using a 1 ml syringe (injection volume of 200 μL); control mice received 50% ethanol alone. Animals were monitored daily. At the end of the experiments, the surviving mice were sacrificed and the colon was excised, weighed, and evaluated for macroscopic damage. In some groups of mice, PBT110B dissolved in nitrocellulose 1% was administered daily also by o.s. at the concentration of 30 mg/kg of body weight The severity of colitis was measured each day for each mouse by assessing the body weight, the fecal blood and stool consistency. Each parameter was scored from 0 to 4 and the sum represents the Colitis Disease Activity Index (CDAI). The scoring system was as following: percent of body weight loss: none=0; 1-5%=1; 5-10%=2; 10-20%=3; >20%=4. Stool consistency: normal=0; soft but still formed=1; very soft=2; diarrhea=3; liquid stools that stick to the anus or anal occlusion=4. Fecal blood: none=0; visible in the stool=2; severe bleeding with fresh blood around the anus and very present in the stool=4. Samples of distal colon (2-3 cm from the anus) were fixed in buffered formalin, cut into 5-μm-thick sections (150 μm between each section, four to eight per fragment per colon), and stained with H&E. Colon samples were immediately frozen in liquid nitrogen and stored at -80° C. until used, mechanically homogenated with the aid of a pestle, and the obtained materials re-suspended in 1 ml of Trizol (Thermo ScientificTM). […]

Setting [1] is: wild-type mice, 30 mg/kg, Real-Time PCR, FIG. 3.

On to `CC[C@]1(O)C[C@H]2[C@@H]3CC[C@H]([C@H](C)CC#N)[C@@]3(C)CC[C@@H]2[C@@]2(C)CC[C@@H](O)C[C@@H]12` [PBT110B, 3α,6α-dihydroxy-6β-ethyl-24-nor-5β-cholan-23-nitrile], for which the “development and severity of colitis assessed by body weight lost, CDAI and histological sections” value (Gpbar1+/+ mice) is given as “attenuated”. For the same compound, the “development and severity of colitis assessed by body weight lost, CDAI and histological sections” value (Gpbar1-/- mice) was “failed to do the same”. For the setting “mice lacking the receptor (Gpbar1-/-), 30 mg/kg, FIG. 3”, the “beneficial effects on colon cytokine expression (pro-inflammatory cytokines, IL-10)” value is reported as “lost”. Moreover, under setting [1], the “expression of pro-inflammatory cytokines (Il-6, Il-1β, TNF-α) in the colon” value was “reducing” and the “expression of the anti-inflammatory cytokine IL-10 in the colon” value was “increasing”.

The values are drawn from US20230066156A1, “6-SUBSTITUTED, 22-CYANO HYODEOXYCHOLANIC ANALOGUES AND USES THEREOF” (PRECISION BIO-THERAPEUTICS S.R.L., priority 2019, published 2023).
